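A five-concentration, 48-hour dose response in 96-well plates underlies each endpoint, interpolated linearly between surrounding concentrations. GI50 = concentration required for 50% inhibition of growth.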 Active and inactive are the calls of the source. Cut-off read from the data, not from the text of the source: active = GI50 up to about 1.1 µM and inactive = higher.
Experiments:
Assay in all cases: NCI tumour cell line growth inhibition, 48 h
786-0 = test system: 786-0
A498 = test system: A498
A549 = test system: A549
ACHN = test system: ACHN
CAKI-1 = test system: CAKI-1
CCRF-CEM = test system: CCRF-CEM
COLO 205 = test system: COLO 205
DLD-1 = test system: DLD-1
DMS-114 = test system: DMS-114
DMS-273 = test system: DMS-273
EKVX = test system: EKVX
HCC 2998 = test system: HCC 2998
HCT-116 = test system: HCT-116
HCT-15 = test system: HCT-15
HL-60 = test system: HL-60
HOP-62 = test system: HOP-62
HOP-92 = test system: HOP-92
HT-29 = test system: HT-29
IGROV-1 = test system: IGROV-1
K562 = test system: K562
KM-20L2 = test system: KM-20L2
KM12 = test system: KM12
LOX IMVI = test system: LOX IMVI
LXFL 529 = test system: LXFL 529
M14 = test system: M14
M19-MEL = test system: M19-MEL
MOLT-4 = test system: MOLT-4
Malme-3M = test system: Malme-3M
NCI-H226 = test system: NCI-H226
NCI-H23 = test system: NCI-H23
NCI-H460 = test system: NCI-H460
NCI-H522 = test system: NCI-H522
OVCAR-3 = test system: OVCAR-3
OVCAR-4 = test system: OVCAR-4
OVCAR-5 = test system: OVCAR-5
OVCAR-8 = test system: OVCAR-8
RPMI-8226 = test system: RPMI-8226
RXF 393 = test system: RXF 393
RXF 631 = test system: RXF 631
SF-268 = test system: SF-268
SF-539 = test system: SF-539
SK-MEL-28 = test system: SK-MEL-28
SK-MEL-2 = test system: SK-MEL-2
SK-MEL-5 = test system: SK-MEL-5
SK-OV-3 = test system: SK-OV-3
SN12C = test system: SN12C
SNB-19 = test system: SNB-19
SNB-75 = test system: SNB-75
SNB-78 = test system: SNB-78
SW-620 = test system: SW-620
TK-10 = test system: TK-10
U-251 = test system: U-251
UACC-257 = test system: UACC-257
UACC-62 = test system: UACC-62
UO-31 = test system: UO-31
XF498 = test system: XF498
SF-295 = test system: SF-295
SR = test system: SR

O=C1C=C(Nc2ccccc2C(=O)CC(=O)C(=O)Nc2cccc([N+](=O)[O-])c2)c2ccccc2C1=O
GI50 (786-0): 29.4 µM (inactive)
GI50 (A498): > 100 µM (inactive)
GI50 (A549): 83.9 µM (inactive)
GI50 (ACHN): > 100 µM (inactive)
GI50 (CAKI-1): > 100 µM (inactive)
GI50 (CCRF-CEM): 3.3 µM (inactive)
GI50 (COLO 205): > 100 µM (inactive)
GI50 (DLD-1): 21.9 µM (inactive)
GI50 (DMS-114): 18.5 µM (inactive)
GI50 (DMS-273): 31.1 µM (inactive)
GI50 (EKVX): > 100 µM (inactive)
GI50 (HCC 2998): > 100 µM (inactive)
GI50 (HCT-116): 20.7 µM (inactive)
GI50 (HCT-15): 23.8 µM
GI50 (HL-60): 3.38 µM (inactive)
GI50 (HOP-62): > 100 µM (inactive)
GI50 (HOP-92): 37.1 µM (inactive)
GI50 (HT-29): > 100 µM (inactive)
GI50 (IGROV-1): 80.4 µM (inactive)
GI50 (K562): 17.7 µM (inactive)
GI50 (KM-20L2): > 100 µM (inactive)
GI50 (KM12): 36.7 µM (inactive)
GI50 (LOX IMVI): 4.82 µM (inactive)
GI50 (LXFL 529): 32.4 µM (inactive)
GI50 (M14): 41.5 µM (inactive)
GI50 (M19-MEL): 4.45 µM (inactive)
GI50 (MOLT-4): 4.28 µM (inactive)
GI50 (Malme-3M): 20.4 µM (inactive)
GI50 (NCI-H226): 59.3 µM (inactive)
GI50 (NCI-H23): 26.9 µM (inactive)
GI50 (NCI-H460): 93.3 µM (inactive)
GI50 (NCI-H522): 21.8 µM (inactive)
GI50 (OVCAR-3): 14.2 µM (inactive)
GI50 (OVCAR-4): 26.9 µM (inactive)
GI50 (OVCAR-5): > 100 µM (inactive)
GI50 (OVCAR-8): 28 µM (inactive)
GI50 (RPMI-8226): 5.58 µM (inactive)
GI50 (RXF 393): 46.3 µM (inactive)
GI50 (RXF 631): > 100 µM (inactive)
GI50 (SF-268): 22.2 µM (inactive)
GI50 (SF-539): > 100 µM (inactive)
GI50 (SK-MEL-28): 46 µM (inactive)
GI50 (SK-MEL-2): 56 µM (inactive)
GI50 (SK-MEL-5): 12.9 µM (inactive)
GI50 (SK-OV-3): > 100 µM (inactive)
GI50 (SN12C): 23.4 µM (inactive)
GI50 (SNB-19): 23.3 µM (inactive)
GI50 (SNB-75): 64.7 µM (inactive)
GI50 (SNB-78): 49.1 µM (inactive)
GI50 (SW-620): 25.6 µM (inactive)
GI50 (TK-10): > 100 µM (inactive)
GI50 (U-251): 32.4 µM (inactive)
GI50 (UACC-257): 27.2 µM (inactive)
GI50 (UACC-62): 26.6 µM (inactive)
GI50 (UO-31): 34.9 µM (inactive)
GI50 (XF498): 19.6 µM (inactive)

COc1ccc(/C(=N/NC(N)=O)C(c2ccc(OC)cc2)C2C(=O)Oc3ccccc32)cc1 (centres undefined)
GI50 (786-0): > 100 µM (inactive)
GI50 (A549): > 100 µM (inactive)
GI50 (CAKI-1): > 100 µM (inactive)
GI50 (CCRF-CEM): > 100 µM (inactive)
GI50 (COLO 205): > 100 µM (inactive)
GI50 (DLD-1): > 100 µM (inactive)
GI50 (DMS-114): > 100 µM (inactive)
GI50 (DMS-273): > 100 µM (inactive)
GI50 (HCC 2998): > 100 µM (inactive)
GI50 (HCT-116): > 100 µM (inactive)
GI50 (HCT-15): > 100 µM
GI50 (HL-60): > 100 µM (inactive)
GI50 (HOP-62): > 100 µM (inactive)
GI50 (HOP-92): 75 µM (inactive)
GI50 (HT-29): > 100 µM (inactive)
GI50 (IGROV-1): > 100 µM (inactive)
GI50 (K562): > 100 µM (inactive)
GI50 (KM-20L2): > 100 µM (inactive)
GI50 (KM12): > 100 µM (inactive)
GI50 (LOX IMVI): > 100 µM (inactive)
GI50 (LXFL 529): > 100 µM (inactive)
GI50 (M14): > 100 µM (inactive)
GI50 (M19-MEL): > 100 µM (inactive)
GI50 (MOLT-4): > 100 µM (inactive)
GI50 (Malme-3M): > 100 µM (inactive)
GI50 (NCI-H226): > 100 µM (inactive)
GI50 (NCI-H23): > 100 µM (inactive)
GI50 (NCI-H460): > 100 µM (inactive)
GI50 (NCI-H522): > 100 µM (inactive)
GI50 (OVCAR-3): > 100 µM (inactive)
GI50 (OVCAR-4): > 100 µM (inactive)
GI50 (OVCAR-5): > 100 µM (inactive)
GI50 (OVCAR-8): > 100 µM (inactive)
GI50 (RPMI-8226): > 100 µM (inactive)
GI50 (RXF 393): 86.1 µM (inactive)
GI50 (RXF 631): > 100 µM (inactive)
GI50 (SF-268): > 100 µM (inactive)
GI50 (SF-295): > 100 µM (inactive)
GI50 (SF-539): > 100 µM (inactive)
GI50 (SK-MEL-28): > 100 µM (inactive)
GI50 (SK-MEL-5): > 100 µM (inactive)
GI50 (SK-OV-3): > 100 µM (inactive)
GI50 (SN12C): > 100 µM (inactive)
GI50 (SNB-19): > 100 µM (inactive)
GI50 (SNB-75): > 100 µM (inactive)
GI50 (SNB-78): > 100 µM (inactive)
GI50 (SR): > 100 µM (inactive)
GI50 (SW-620): > 100 µM (inactive)
GI50 (U-251): > 100 µM (inactive)
GI50 (UACC-257): > 100 µM (inactive)
GI50 (UACC-62): > 100 µM (inactive)
GI50 (UO-31): 35 µM (inactive)
GI50 (XF498): > 100 µM (inactive)

— ChEMBL document CHEMBL1201862, “PubChem BioAssay data set” (2004)
